A short description of data set [1]: Pharmacokinetic study, plasma. It counts as in vivo. Particulars: male C57BL/6 mice. The protocol:
Compound KL50 dosing solution: 3.39% DMSO+96.61% (10% HP-β-CD in saline) at 2 mg/mL; • 1) Weigh 17.39 mg of compound KL50 into a clean tube. • 2) Add 0.295 mL DMSO into the tube containing the compound. • 3) Vortex the tube for 3 min and sonicate it for 4 min. • 4) Add 8.400 mL 10% HP-β-CD in saline into the tube and vortex the tube for 3 min. Compound I-1 dosing solution: 3.39% DMSO+96.61% (10% HP-β-CD in saline) at 2 mg/mL; • 1) Weigh 16.86 mg Compound I-1 into a clean tube. • 2) Add 0.286 mL DMSO into the tube containing the compound. • 3) Vortex the tube for 3 min and sonicate it for 4 min. • 4) Add 8.144 mL 10% HP-β-CD in saline into the tube and vortex the tube for 3 min.
The in-vivo pharmacokinetic and brain distribution study was conducted under the following parameters. Twenty seven C57BL/6 male mice were purchased from Shanghai JiHui Laboratory Animal Co. LTD. Each mouse weighted from 16 g to 17 g. The mice were fasted overnight and fed post 4 hr sampling. Compound KL50 and Compound I-I were administered via oral gavage (PO) at a dose of 20 mg/kg (10 mL/kg). After dosing, sampling was completed at 0.083, 0.167, 0.333, 0.5, 0.75, 1, 2, 4 and 8 hr post dose, with three mice sacrificed at each time point.
Terminal bleeding for plasma and brain was completed at each time point. Approximately 110 μL blood per time point was collected into a K2EDTA tube via the facial vein. The blood sample was put on wet ice and centrifuged to obtain plasma sample (2000 g, 5 min under 4° C.) within 15 minutes. Plasma samples were acidified with 6 μL of formic acid for every 54 μL of plasma. After blood collection, a mid-line incision was made in the animal's scalp and the skin was retracted. The skull overlying the brain was removed. Then, the whole brain was collected, rinsed with cold saline, dried on filtrate paper, and weighed; and then snap frozen by placing the brain into dry-ice. Plasma samples were stored at approximately −70° C. until analysis. Brain tissue was homogenized with 3 volumes (v/w) of PBS (1% FA) and then analyzed with LC-MS/MS. The concentration of study drug was corrected with a dilution factor of four as following: Brain concentration=brain homogenate conc.×4, assuming 1 g wet brain tissue equals to 1 mL

Data set [2] deals with genomic DNA of LN229 MGMT−/MMR+ cells. In words: Genomic DNA denaturing gel electrophoresis. The following applies: 200 μM, 24 h. It counts as cell-based, human. The protocol: Genomic DNA Denaturing Gel Electrophoresis. Cells were trypsinized, washed with 1×PBS, and stored at −80° C. prior to processing. Genomic DNA was extracted with the DNeasy Blood & Tissue Kit (Qiagen) per kit protocol. A 0.7% agarose gel was prepared in 100 mM NaCl-2 mM EDTA (pH 8) and soaked in 40 mM NaOH-1 mM EDTA running buffer for 2 h. Genomic DNA (400 ng/well) was then loaded in 1× BlueJuice loading buffer (Invitrogen) and subjected to electrophoresis at 2 V/cm for 30 min, followed by 3 V/cm for 2 h. The gel was neutralized in 150 mM NaCl-100 mM Tris (pH 7.4) for 30 min, twice, and then stained with 1× SYBR Gold in 150 mM NaCl-100 mM Tris (pH 7.4) for 90 min. Imaging was performed on a ChemiDoc XRS+ Molecular Imager (Bio-Rad).

Data set [3] concerns LN229 MGMT−/MMR+ and MGMT−/MMR− cells. Kind of data set: IR alkaline comet assay. It counts as cell-based, human. The protocol:
IR Alkaline Comet Assay. Assay was performed utilizing the CometAssay Kit (Trevigen) according to the alkaline assay protocol, with the addition of slide irradiation post-lysis. Cells were trypsinized, washed with 1×PBS, added to melted Comet LMAgarose (Trevigen), and spread on Trevigen CometSlides at a density of 1000 cells per sample in 50 μL. Lysis solution (Trevigen) with 10% DMSO was added overnight at 4° C. Slides were removed from lysis buffer and irradiated to 0 or 10 Gy using an XRAD 320 X-Ray System (Precision X-Ray) at 320 kV, 12.5 mA, and 50.0 cm SSD, with a 2 mm Al filter and 20 cm×20 cm collimator. Slides were then placed in alkaline buffer (200 mM NaOH, 1 mM EDTA) for 45 min, followed by electrophoresis in 850 mL alkaline buffer for 45 min at 4° C. Slides were washed and stained with SYBR gold (Invitrogen) per Trevigen assay protocol. Slides were imaged on a Cytation 3 imaging reader (BioTek), and comets were analyzed using CometScore 2.0 software (TriTek).
We used a well-established comet assay adapted for ICL detection to determine if ICLs were formed in MGMT− cells treated with KL-50 (4a) (FIG. Z3, A and B). In this assay, cells were sequentially exposed to genotoxins and ionizing radiation, and then analyzed by single cell alkaline gel electrophoresis. Attenuation of the IR-induced comet tail is indicative of ICL formation.

Several values for one entry are separate records, joined by “and”; a condition that tells them apart may be missing. Equal values may be shown once. Read-outs that look alike come from different tables or passages of the source.

As to `CNC(=O)c1ncn2c(=O)n(CCF)nnc12` [Compound I-1, 3-(2-fluoroethyl)-N-methyl-4-oxo-3H,4H-imidazo[4,3-d][1,2,3,5]tetrazine-8-carboxamide], the “plasma Concentration, Individuals” value in data set [1] (PO 20 mg/kg, 0.083 hr, 20 mg/kg) is 20300 ng/mL and 20500 ng/mL; in data set [1] (PO 20 mg/kg, 0.167 hr, 20 mg/kg), 15000 ng/mL and 16600 ng/mL; in data set [1] (PO 20 mg/kg, 0.333 hr, 20 mg/kg), 11300 ng/mL and 13400 ng/mL; in data set [1] (PO 20 mg/kg, 0.5 hr, 20 mg/kg) it was 7050 ng/mL and 7190 ng/mL; in data set [1] (PO 20 mg/kg, 0.75 hr, 20 mg/kg), 4010 ng/mL and 3430 ng/mL; in data set [1] (PO 20 mg/kg, 1 hr, 20 mg/kg), 1520 ng/mL and 2430 ng/mL. The “plasma Concentration, Individuals” value in data set [1] (PO 20 mg/kg, 2 hr, 20 mg/kg) was 359 ng/mL and 714 ng/mL and 185 ng/mL; in data set [1] (PO 20 mg/kg, 4 hr, 20 mg/kg), 5.01 ng/mL and 2.42 ng/mL and 3.21 ng/mL; in data set [1] (PO 20 mg/kg, 8 hr, 20 mg/kg), 2.65 ng/mL and 5.63 ng/mL and 7.33 ng/mL. Also, the concentration at 0.083 hr in data set [1] (male, C57BL/6, mouse, plasma, po, 20 mg/kg, 0.083 hr, N=3, read-out: plasma Concentration, Mean) turned out to be 20700 ng/mL; in data set [1] (male, C57BL/6, mouse, plasma, po, 20 mg/kg, 0.083 hr, read-out: plasma Concentration, Individuals), 21200 ng/mL. The concentration at 0.167 hr in data set [1] (male, C57BL/6, mouse, plasma, po, 20 mg/kg, 0.167 hr, N=3, read-out: plasma Concentration, Mean) came out at 14300 ng/mL; in data set [1] (male, C57BL/6, mouse, plasma, po, 20 mg/kg, 0.167 hr, read-out: plasma Concentration, Individuals) it was 11300 ng/mL. The concentration at 0.333 hr amounted to 11200 ng/mL in data set [1] (male, C57BL/6, mouse, plasma, po, 20 mg/kg, 0.333 hr, N=3, read-out: plasma Concentration, Mean) and 8830 ng/mL in data set [1] (male, C57BL/6, mouse, plasma, po, 20 mg/kg, 0.333 hr, read-out: plasma Concentration, Individuals). The concentration at 0.5 hr came to 6850 ng/mL in data set [1] (male, C57BL/6, mouse, plasma, po, 20 mg/kg, 0.5 hr, N=3, read-out: plasma Concentration, Mean) and 6300 ng/mL in data set [1] (male, C57BL/6, mouse, plasma, po, 20 mg/kg, 0.5 hr, read-out: plasma Concentration, Individuals). Besides, the concentration at 0.75 hr in data set [1] (male, C57BL/6, mouse, plasma, po, 20 mg/kg, 0.75 hr, N=3, read-out: plasma Concentration, Mean) is 3810 ng/mL; in data set [1] (male, C57BL/6, mouse, plasma, po, 20 mg/kg, 0.75 hr, read-out: plasma Concentration, Individuals) it was 3980 ng/mL. In addition, the concentration at 1 hr in data set [1] (male, C57BL/6, mouse, plasma, po, 20 mg/kg, 1 hr, N=3, read-out: plasma Concentration, Mean) was determined as 2040 ng/mL; in data set [1] (male, C57BL/6, mouse, plasma, po, 20 mg/kg, 1 hr, read-out: plasma Concentration, Individuals) it was 2180 ng/mL. Moreover, the concentration at 2 hr in data set [1] (male, C57BL/6, mouse, plasma, po, 20 mg/kg, 2 hr, N=3, read-out: plasma Concentration, Mean) is 419 ng/mL. Moreover, the concentration at 4 hr in data set [1] (male, C57BL/6, mouse, plasma, po, 20 mg/kg, 4 hr, N=3, read-out: plasma Concentration, Mean) was 3.55 ng/mL. This compound also gave a concentration at 8 hr in data set [1] (male, C57BL/6, mouse, plasma, po, 20 mg/kg, 8 hr, N=3) of 5.2 ng/mL. In addition, the total exposure AUC(0-inf) (as a rule, the area under the concentration-time curve extrapolated to infinity) in data set [1] (mouse, plasma, PO 20 mg/kg) worked out at 9680 ng·h/mL. Also, in data set [1] (mouse, plasma, PO 20 mg/kg), the AUC(0-t) (in general, exposure summed from dosing to a finite time, without extrapolation to infinity) turned out to be 9680 ng·h/mL. Moreover, the Cmax (commonly the peak of the concentration-time curve) in data set [1] (mouse, plasma, PO 20 mg/kg) came to 20700 ng/mL. Moreover, the MRT inf (usually the average time that molecules of a dose stay in the body) in data set [1] (mouse, plasma, PO 20 mg/kg) turned out to be 32.2 min. The Tmax (as a rule, the time from dosing to the highest level) in data set [1] (mouse, plasma, PO 20 mg/kg) came out at 4.98 min. For the same compound, in data set [1] (mouse, plasma, PO 20 mg/kg), the half-life (in general, how long it takes for the measured level to halve) was 37.3 min.
With `Cn1nnc2c(C(N)=O)ncn2c1=O` [TMZ, temozolomide, reference compound], the “crosslinked genomic DNA (in words)” value in data set [2] is listed as “no evidence of ICL induction”. Further, the “effect on IR-induced comet tail, ICL detection (in words)” value in data set [3] (MGMT−/MMR+ cells, 200 μM for 24 h, 10 Gy) is “did not reduce DNA migration following IR”. Besides, the “comet tailing in the absence of IR (in words)” value in data set [3] (MGMT−/MMR+ cells, TMZ and KL-50 200 μM, MMC 0.1 or 50 μM) is “induced tailing”. Also, the “DNA damage in unirradiated samples (in words)” value in data set [3] (MGMT−/MMR− cells, 200 μM, 2, 8 or 24 h, 0 Gy) is on record as “induced maximal damage at 2 h, which decreased over time”. For the same compound, the “rate of ICL formation, DNA mobility after IR (in words)” value in data set [3] (MGMT−/MMR− cells, 200 μM, 2, 8 or 24 h, 10 Gy) was “did not induce a statistically significant decrease in DNA migration within 24 h”.

The values above are taken from US20240400572A1, “COMPOUNDS AND METHODS FOR TREATING CANCERS THAT ARE MGMT DEFICIENT REGARDLESS OF MMR STATUS” (Yale University, priority 2021, published 2024).
